Data as given in ChEMBL document CHEMBL1155736, “Suberedamines A and B, new bromotyrosine alkaloids from a sponge Suberea species” (J Nat Prod, 2001).
Converted amounts (≈) assume the structure as drawn.

Assays:
KB = test: Cytotoxicity against human KB cells; format: functional, cell-based
L1210 = test: Cytotoxicity against mouse L1210 cells; format: functional, cell-based
Micrococcus luteus = test: Antibacterial activity against Micrococcus luteus; format: functional

SMILES	IC50 (KB) [µg/mL]	IC50 (L1210) [µg/mL]	MIC (Micrococcus luteus) [µg/mL]
COc1ccc(C[C@H](N)C(=O)NCCc2cc(Br)c(OCCCN(C)C)c(Br)c2)cc1Br [SUBEREDAMINE A]	9 (≈ 14.1 µM)	8 (≈ 12.6 µM)	12.6 (≈ 19.8 µM)
CN[C@@H](Cc1ccc(OC)c(Br)c1)C(=O)NCCc1cc(Br)c(OCCCN(C)C)c(Br)c1 [SUBEREDAMINE B]	> 10	8.6 (≈ 13.2 µM)	12.6 (≈ 19.4 µM)
